Active and inactive are the calls of the source. The rule behind the calls is not given here.
Experiments:
[1] = AUC (0 to 24 hrs) in liver of C57BL/6J mouse at 20 mg/kg, po measured for 24 hrs; format: ADME, organism-based
Cytochrome P450 3A4 = Cytochrome P450 3A4 (Homo sapiens, UniProt P08684); assay: Inhibition of CYP3A4 in human liver microsomes preincubated for 10 mins followed by NADPH addition measured after 3.5 mins by LC-MS/MS analysis; format: ADME, Microsome
Rattus norvegicus [2] = assay: Anti-inflammatory activity in Sprague-Dawley rat model of CFA-induced rheumatoid arthritis assessed as increase in ratio of plasma 8,9-EET to DHET levels at 10 mg/kg, po administered daily measured after 19 days relative to control; format: functional; settings: time 19 day
[3] = Ratio of Cmax in brain to plasma in C57BL/6J mouse at 20 mg/kg, po measured for 24 hrs; format: ADME, organism-based; settings: brain and plasma
Mus musculus [4] = assay: Anti-inflammatory activity in BALB/c mouse model of carrageenan-induced paw edema assessed as inhibition of paw swelling at 20 mg/kg, po measured up to 6 hrs relative to control; format: functional
Mus musculus [5] = assay: Anti-inflammatory activity in BALB/c mouse model of carrageenan-induced paw edema assessed as inhibition of paw swelling at 1 mg/kg, po measured up to 6 hrs relative to control; format: functional
[6] = In vivo inhibition of liver sEH enzyme activity in Sprague-Dawley rat model of CFA-induced rheumatoid arthritis at 10 mg/kg, po administered daily measured after 19 days relative to control; format: functional; settings: 456 h, time 19 day
[7] = Tmax in Sprague-Dawley rat at 20 mg/kg, po measured for 24 hrs; format: ADME, organism-based; settings: in vivo
Rattus norvegicus [8] = assay: Anti-inflammatory activity in Sprague-Dawley rat model of CFA-induced rheumatoid arthritis assessed as […] in connective tissue proliferation in synovial tissue at 10 mg/kg, po administered daily measured after 19 days by H and E staining based analysis; format: functional, organism-based; settings: time 19.0 day
[9] = molecular target: T1, Bifunctional epoxide hydrolase 2 (Mus musculus, UniProt P34914); assay: biochemical
T1 sequence (P34914 whole entry): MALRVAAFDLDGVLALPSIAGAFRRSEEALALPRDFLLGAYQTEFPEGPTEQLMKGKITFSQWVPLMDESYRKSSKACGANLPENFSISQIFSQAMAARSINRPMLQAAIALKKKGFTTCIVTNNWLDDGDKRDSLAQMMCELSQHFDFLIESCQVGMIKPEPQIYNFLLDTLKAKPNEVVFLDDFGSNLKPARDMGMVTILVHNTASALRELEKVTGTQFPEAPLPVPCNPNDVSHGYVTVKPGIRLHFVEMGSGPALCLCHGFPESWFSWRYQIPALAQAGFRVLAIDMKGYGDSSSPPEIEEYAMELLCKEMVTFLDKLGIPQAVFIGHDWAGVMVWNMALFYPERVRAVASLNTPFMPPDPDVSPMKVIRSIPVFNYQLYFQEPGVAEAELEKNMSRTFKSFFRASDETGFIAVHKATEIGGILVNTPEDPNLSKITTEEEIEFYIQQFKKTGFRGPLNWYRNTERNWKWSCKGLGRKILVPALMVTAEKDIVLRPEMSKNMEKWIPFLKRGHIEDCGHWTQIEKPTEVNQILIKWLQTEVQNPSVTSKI
Description: Inhibition of C57BL/6J mouse brain sEH using 14,15-EET as substrate preincubated for 15 mins followed by substrate addition by HPLC-MS analysis

Rattus norvegicus [10] = assay: Anti-inflammatory activity in Sprague-Dawley rat model of CFA-induced rheumatoid arthritis assessed as decrease in lymphocytes infiltration in synovial tissue at 10 mg/kg, po administered daily measured after 19 days by H and E staining based analysis; format: functional, organism-based; settings: time 19.0 day
[11] = Cmax in liver of C57BL/6J mouse at 20 mg/kg, po measured for 24 hrs; format: ADME, organism-based
Rattus norvegicus [12] = assay: Anti-inflammatory activity in Sprague-Dawley rat model of CFA-induced rheumatoid arthritis assessed as improvement in joint tissue structure at 10 mg/kg, po administered daily measured after 19 days by H and E staining based analysis; format: functional, organism-based; settings: time 19.0 day
[13] = Oral bioavailability in Sprague-Dawley rat at 20 mg/kg measured for 24 hrs; format: ADME, organism-based; settings: in vivo
Mus musculus [14] = assay: Anti-inflammatory activity in BALB/c mouse model of carrageenan-induced paw edema assessed as inhibition of paw swelling at 20 mg/kg, po measured for 0.5 hrs relative to control; format: functional; settings: Mus musculus, BALB/c
RAW264.7 [15] = assay: Anti-inflammatory activity in LPS-indeced mouse RAW264.7 cells assessed as reduction in TNF-alpha level at 10 uM preincubated for 1 hr followed by LPS addition measured after 24 hrs by ELISA; format: functional, cell-based; settings: time 25.0 hrs
[16] = Cmax in kidney of C57BL/6J mouse at 20 mg/kg, po measured for 24 hrs; format: ADME, organism-based
[17] = Half life in Sprague-Dawley rat at 5 mg/kg, iv measured for 24 hrs; format: ADME, organism-based; settings: in vivo
Mus musculus [18] = assay: Anti-inflammatory activity in BALB/c mouse model of carrageenan-induced paw edema assessed as increase in ratio of 11,12-EET to DHET plasma levels at 10 mg/kg, po measured after 6 hrs relative to control; format: functional
RAW264.7 [19] = assay: Anti-inflammatory activity in LPS-indeced mouse RAW264.7 cells assessed as reduction in IL-1beta level at 10 uM preincubated for 1 hr followed by LPS addition measured after 24 hrs by ELISA; format: functional, cell-based
Mus musculus [20] = assay: Anti-inflammatory activity in CD-1 mouse model of cerulein-induced acute pancreatitis assessed as increase in ratio of plasma 11,12-EET/DHET level at 10 mg/kg, ip drug administered at 30 mins and 2.5 hrs post-first cerulein injection and measured after 6 hrs post-first cerulein injection (reference value: 69.8 to 77.3 %); format: functional; settings: time 3.5-5.5 hrs
Mus musculus [21] = assay: Anti-inflammatory activity in BALB/c mouse model of carrageenan-induced paw edema assessed as increase in plasma 14,15-EET levels at 10 mg/kg, po measured after 6 hrs relative to control; format: functional
Mus musculus [22] = assay: Anti-inflammatory activity in CD-1 mouse model of cerulein-induced acute pancreatitis assessed as decrease in plasma TNF-alpha level at 10 mg/kg, ip drug administered at 30 mins and 2.5 hrs post-first cerulein injection and measured after 6 hrs post-first cerulein injection; format: functional, organism-based; settings: time 3.5-5.5 hrs
Rattus norvegicus [23] = assay: Anti-inflammatory activity in Sprague-Dawley rat model of CFA-induced rheumatoid arthritis assessed as increase in plasma 14,15-EET level at 10 mg/kg, po administered daily measured after 19 days relative to control; format: functional; settings: time 19 day
[24] = AUC (0 to 24 hrs) in brain of C57BL/6J mouse at 20 mg/kg, po measured for 24 hrs; format: ADME, organism-based
Cytochrome P450 2C19 = Cytochrome P450 2C19 (Homo sapiens, UniProt P33261); assay: Inhibition of CYP2C19 in human liver microsomes preincubated for 10 mins followed by NADPH addition measured after 3.5 mins by LC-MS/MS analysis; format: ADME, Microsome
Rattus norvegicus [25] = assay: Anti-inflammatory activity in Sprague-Dawley rat model of CFA-induced rheumatoid arthritis assessed as decrease in plasma IL-6 level at 10 mg/kg, po administered daily measured after 19 days relative to control; format: functional; design: scale not given: the % may be the effect or the level left; settings: time 19 day
Cytochrome P450 2C9 = Cytochrome P450 2C9 (Homo sapiens, UniProt P11712); assay: Inhibition of CYP2C9 in human liver microsomes preincubated for 10 mins followed by NADPH addition measured after 3.5 mins by LC-MS/MS analysis; format: ADME, Microsome
Sequence of Cytochrome P450 2C9 (P11712 whole entry): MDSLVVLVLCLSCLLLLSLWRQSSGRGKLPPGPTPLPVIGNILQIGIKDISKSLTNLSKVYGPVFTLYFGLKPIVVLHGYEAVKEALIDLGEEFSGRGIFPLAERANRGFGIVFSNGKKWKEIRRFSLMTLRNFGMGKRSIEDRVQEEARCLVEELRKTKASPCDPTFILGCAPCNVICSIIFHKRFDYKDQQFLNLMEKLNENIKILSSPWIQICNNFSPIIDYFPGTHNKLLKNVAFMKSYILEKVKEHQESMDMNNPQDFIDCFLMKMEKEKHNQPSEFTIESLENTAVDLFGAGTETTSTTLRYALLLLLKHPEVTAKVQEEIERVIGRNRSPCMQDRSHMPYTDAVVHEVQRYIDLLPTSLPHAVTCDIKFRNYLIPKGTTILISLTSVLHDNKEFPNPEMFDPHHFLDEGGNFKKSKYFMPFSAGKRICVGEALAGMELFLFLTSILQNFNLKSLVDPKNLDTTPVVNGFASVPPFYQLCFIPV

Sequence of Cytochrome P450 3A4 (P08684 whole entry): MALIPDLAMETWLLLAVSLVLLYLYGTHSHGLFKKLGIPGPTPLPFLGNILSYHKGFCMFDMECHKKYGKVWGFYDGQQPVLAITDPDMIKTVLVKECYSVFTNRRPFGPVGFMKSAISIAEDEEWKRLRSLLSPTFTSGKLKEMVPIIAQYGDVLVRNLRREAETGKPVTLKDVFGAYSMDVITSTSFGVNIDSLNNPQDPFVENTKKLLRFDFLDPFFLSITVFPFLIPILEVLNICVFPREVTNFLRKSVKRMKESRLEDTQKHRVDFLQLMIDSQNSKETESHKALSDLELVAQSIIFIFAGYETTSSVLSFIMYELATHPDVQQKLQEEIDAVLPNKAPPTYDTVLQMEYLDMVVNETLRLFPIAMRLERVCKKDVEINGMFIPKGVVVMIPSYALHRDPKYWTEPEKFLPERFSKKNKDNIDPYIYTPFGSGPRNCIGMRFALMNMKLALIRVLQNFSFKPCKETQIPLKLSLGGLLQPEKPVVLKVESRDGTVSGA
Sequence of Cytochrome P450 2C19 (P33261 whole entry): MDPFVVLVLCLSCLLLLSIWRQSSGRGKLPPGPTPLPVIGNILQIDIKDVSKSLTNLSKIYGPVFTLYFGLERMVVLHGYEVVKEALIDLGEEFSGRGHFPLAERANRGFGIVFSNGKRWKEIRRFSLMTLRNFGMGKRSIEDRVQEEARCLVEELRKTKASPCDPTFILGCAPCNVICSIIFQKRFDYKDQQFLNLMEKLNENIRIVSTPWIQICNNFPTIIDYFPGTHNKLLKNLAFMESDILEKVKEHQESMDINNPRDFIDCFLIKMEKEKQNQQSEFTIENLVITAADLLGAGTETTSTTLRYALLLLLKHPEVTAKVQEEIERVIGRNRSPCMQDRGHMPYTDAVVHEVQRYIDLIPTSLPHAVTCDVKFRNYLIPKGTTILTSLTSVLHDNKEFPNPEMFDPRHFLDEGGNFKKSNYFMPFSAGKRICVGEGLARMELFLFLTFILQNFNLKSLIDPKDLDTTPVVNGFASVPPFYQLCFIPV

COc1cc(CC(=O)N2CCC(NC(=O)NCc3ccc(OC(F)(F)F)cc3)CC2)cc(OC)c1
AUC(0-t) at 24 h [1]: 27100 ng·h/mL
IC50 (Cytochrome P450 3A4): 22.9 µM
Activity (Rattus norvegicus [2]): 203%
Kp at 24 h [3]: 0.06
inhibition in vivo at 20 mg/kg (Mus musculus [4]): 44.6%
inhibition in vivo at 1 mg/kg (Mus musculus [5]): 34%
inhibition in vivo at 10 mg/kg [6]: 24.7%
Tmax [7]: 30 min
Activity (Rattus norvegicus [8]): Active; Minimal Connective Tissue Proliferation Was Observed
IC50 [9]: 0.00051 µM
Activity (Rattus norvegicus [10]): Active; Small Lymphocytes Infiltration Was Observed
Cmax [11]: 3230 ng/g
Activity (Rattus norvegicus [12]): Active
bioavailability [13]: 8.3%
inhibition in vivo at 20 mg/kg (Mus musculus [14]): 29.5%
Activity (RAW264.7 [15]): Active
Cmax [16]: 4540 ng/g
half-life [17]: 25.2 min
Activity (Mus musculus [18]): 362%
Activity (RAW264.7 [19]): Active
Activity (Mus musculus [20]): 552%
Activity (Mus musculus [21]): 128%
Activity (Mus musculus [22]): Active
Activity (Rattus norvegicus [23]): 175%
AUC(0-t) at 24 h [24]: 11 ng·h/mL
IC50 (Cytochrome P450 2C19): 9.5 µM
Activity (Rattus norvegicus [25]): 60%
IC50 (Cytochrome P450 2C9): 48.2 µM
